Here are results for two molecules from patent US9220705B2, “Method of treating colorectal cancer” (priority 2013, dated 2015).

“And” between values parts separate entries of the source, which are not always exact repeats. Equal entries are not always repeated. “Also recorded” adds a separate entry of the source. Marks after values point to notes of the source that are not given here.

For data set [1] the following is noted: literature values; cited from earlier work.
Data set [2] relates to LoVo-OXP cells. The experiment in a line: Cellular platinum uptake by GF-AAS. In kind it is cell-based, human. Conditions: LoVo-OXP resistant cells, 5 μM, 6, 24, 48 h, FIG. 2 panel B, compared with LoVo. On the procedure:
LoVo and LoVo-OXP cells (2×10^6) were seeded in 75 cm^2 flasks in growth medium (20 ml). After 24 h, the medium was replaced and the cells incubated for different times (6, 24 or 48 h) in the presence of the tested complexes. Cell monolayers were washed twice with cold PBS and harvested. Samples were subjected to three freezing/thawing cycles at −80° C., and then vigorously vortexed. Aliquots were removed for the determination of protein content by the BioRad protein assay (BioRad). The samples were treated with 1 mL of highly pure nitric acid (Pt: ≦0.01 μg×kg^−1, TraceSELECT® Ultra, Sigma Chemical Co.) and transferred into a microwave teflon vessel. Subsequently, samples were submitted to a standard procedure using a speed wave MWS-3 Berghof instrument (Eningen, Germany). After cooling, each mineralized sample was analyzed for platinum by using a Varian AA Duo graphite furnace atomic absorption spectrometer (Varian, Palo Alto, Calif.; USA) at the wavelength of […]. The calibration curve was obtained using known concentrations of standard solutions purchased from Sigma Chemical Co.
It is well-known that cellular uptake is an important factor influencing drug efficacy. […] The intracellular platinum was quantified by means of GF-AAS analysis and the results, expressed as μg metal mg^−1 of cellular proteins, are summarized in FIG. 2.

The subject of data set [3] is LoVo colon cancer cells. As to the kind of experiment: MTT cytotoxicity assay, cross-resistance profile. In kind it is cell-based, human. Conditions: 72 h. From the text: Human breast (MCF-7) and colon (HCT-15, DDL1, SW480 and CaCo-2) carcinoma cell lines along with melanoma (A375) were obtained from the American Type Culture Collection (ATCC, Rockville, Md.). A431 are human cervical carcinoma cells kindly provided by Prof. F. Zunino (Molecular Pharmacology Unit, Experimental Oncology and Molecular Medicine, Istituto Nazionale dei Tumori, Milan, Italy). […] G. Marverti (Dept. of Biomedical Science, University of Modena, Italy). LoVo human colon-carcinoma cell line and its multidrug-resistant sublime (LoVo MDR) were kindly provided by Prof F. Maj one (Department of Biology of Padova University, Italy).
(§1) The growth inhibitory effect towards tumor cell lines was evaluated by means of the MTT (3-(4,5-dimethylthiazol-2-yl)-2,5-diphenyltetrazolium bromide) assay (Alley, M. C., et al., Cancer Res. 1988, 48, 589-601).
(§2) Briefly, depending upon the growth characteristics of the cell line, 3-8×10^3 cells well^−1, were seeded in 96-well microplates in growth medium (100 μL) and then incubated at 37° C. in a 5% carbon dioxide atmosphere. After 24 h, the medium was removed and replaced with a fresh one containing the compound to be studied, at the appropriate concentration, dissolved in 0.9% sodium chloride solution just before use. Triplicate cultures were established for each treatment. After 72 h, each well was treated with […] of a 5 mg mL^−1 MTT saline solution and, after 5 h of incubation, 100 μL of a sodium dodecylsulfate (SDS) solution in 0.01 M HCl were added. After an overnight incubation, the inhibition of cell growth induced by the tested complexes was determined by measuring the absorbance of each well at 570 nm using a BioRad 680 microplate reader. Mean absorbance for each drug dose was expressed as percentage of the control and plotted vs. drug concentration. Dose-response curves were fitted and IC50 values were calculated with four parameter logistic model (4PL).
(§3) A LoVo cell line retaining a multidrug resistance phenotype was also considered (LoVo MDR). Cross-resistance profiles were evaluated by means of the resistance factor (RF), which is defined as the ratio between the IC50 value for the resistant cells and that arising from the sensitive cells (Table 2).

The subject of data set [4] is Lewis lung carcinoma (LLC). As to the kind of experiment: In vivo anticancer activity toward Lewis lung carcinoma. Conditions: daily dose i.p. 1.5 mg kg^−1 from day 9; day 15. More on the design: species or system C57BL mice. The method, then: All studies involving animal testing were carried out in accordance with the ethical guidelines for animal research adopted by the University of Padua, acknowledging the Italian regulation and the European Directive 86/609/EEC as to animal welfare and protection and the related codes of practice. The mice were purchased from Charles River, Italy, and housed in steel cages under controlled environmental conditions (constant temperature, humidity, and 12 h dark/light cycle) and alimented with commercial standard feed and tap water ad libitum. Animals were observed daily, and body weight and food intake recorded. The Lewis lung carcinoma (LLC) cell line was purchased from ECACC, UK. The LLC cell line was maintained in D-MEM (Euroclone) supplemented with 10% heat-inactivated FBS (Euroclone), 10 mM L-glutamine, 100 U mL^−1 penicillin, and 100 μg mL^−1 streptomycin in a 5% CO2 air incubator at 37° C.
The Lewis lung carcinoma (LLC) was implanted i.m. as a 2×10^6 cell inoculum into the right hind leg of 8-week old male and female C57BL mice (24±3 g body weight). […] At day 15, animals were sacrificed, the legs were amputated at the proximal end of the femur, and the inhibition of tumor growth was determined according to the difference in weight of the tumor-bearing leg and the healthy leg of the animals expressed as % referred to the control animals. Body weight was measured every two days and was taken as a parameter for systemic toxicity.
All the values are the means±S.D. of not less than three measurements. Multiple comparisons were made by Tukey-Kramer test (**p<0.01; *p or °p<0.05).
The in vivo antitumor activity of compound 1 was evaluated in a model of solid tumor, the syngeneic murine Lewis lung carcinoma (LLC). […] For the assessment of the adverse side effects, changes in body weights of tumor-bearing mice were monitored daily (FIG. 3).

Data set [5] relates to LoVo MDR multidrug resistant colon carcinoma subline. The experiment in a line: MTT cytotoxicity assay, cross-resistance profile. It is filed as cell-based, human.
Excerpt: (§4) Human breast (MCF-7) and colon (HCT-15, DDL1, SW480 and CaCo-2) carcinoma cell lines along with melanoma (A375) were obtained from the American Type Culture Collection (ATCC, Rockville, Md.). A431 are human cervical carcinoma cells kindly provided by Prof. F. Zunino (Molecular Pharmacology Unit, Experimental Oncology and Molecular Medicine, Istituto Nazionale dei Tumori, Milan, Italy). […] G. Marverti (Dept. of Biomedical Science, University of Modena, Italy). LoVo human colon-carcinoma cell line and its multidrug-resistant sublime (LoVo MDR) were kindly provided by Prof F. Maj one (Department of Biology of Padova University, Italy). […] Cell lines were maintained in the logarithmic phase at 37° C. in a 5% carbon dioxide atmosphere using the following culture media containing 10% fetal calf serum (Euroclone, Milan, Italy), antibiotics (50 units mL^−1 penicillin and 50 μg mL^−1 streptomycin), and 2 mM L-glutamine in: i) RPMI-1640 medium (Euroclone) for MCF-7, HCT-15, A431, DLD 1, 2008, and C13* cells; ii) F-12 HAM'S (Sigma Chemical Co.) for LoVo, LoVo MDR, and LoVo-OXP cells; iii) DMEM for A375 and SW 480 cells; and iv) MEM for CaCo-2 cells.
as §1, §2, §3
In Table 2 are also reported the results obtained in a multidrug resistant (MDR) colon carcinoma subline, LoVo MDR, in which the resistance to doxorubicin, a drug belonging to the MDR spectrum, is associated with an overexpression of multi-specific drug transporters, such as the 170 kDa P-glycoprotein (P-gp) (Wersinger, C., et al., Amino Acids 2000, 19, 667-685). It is well known that acquired MDR, whereby cells become refractory to multiple drugs, poses most important challenge to the success of anticancer chemotherapy.

The subject of data set [6] is C13* cisplatin resistant ovarian cancer cells. As to the kind of experiment: MTT cytotoxicity assay, cross-resistance profile. It is filed as cell-based, human.
Excerpt: as §4, §1, §2, §3

Data set [7] concerns 2008 ovarian cancer cells. The experiment in a line: MTT cytotoxicity assay, cross-resistance profile. It is filed as cell-based, human. Conditions: 72 h.
Excerpt: as §4, §1, §2, §3
A general note: Tetrazolium dyes change colour on reduction, which living cells bring about.

Data set [8] deals with LoVo-OXP oxaliplatin resistant colon cancer cells. As to the kind of experiment: MTT cytotoxicity assay, cross-resistance profile. In kind it is cell-based, human.
Excerpt: as §4, §1, §2, §3

Data set [9] relates to HCT-15. The experiment in a line: MTT cytotoxicity assay, 72 h. In kind it is cell-based, human. Conditions: HCT-15, colon.
Excerpt: as §4, §1, §2
(§5) Compound 1 was prepared for the first time almost twenty years ago however, until now, it had been tested (both in vitro and in vivo) only in a limited number of tumor cell lines (Hoeschele, J. D., et al., J. Med. Chem. 1994, 37, 2630-2636 and Shamsuddin, S., et al., J. Inorg. Biochem. 1996, 61, 291-301). The Pt(II) and Pt(IV) complexes containing isomeric forms of diaminocyclohexane, [PtCl2(cis-1,4-DACHA](1), [PtCl2(1R,2R-DACH)] (2), [Pt(OXA)(cis-1,4-DACH)] (3), cis,trans,cis-[Pt^IVCl2(OH)2(cis-1,4-DACH)] (4), cis,trans,cis-[Pt^IVCl2(DCA)2(cis-1,4-DACH)] (5), [Pt(CBDCA)(cis-1,4-DACH)] (6), cis,trans,cis-[Pt^IV(OXA)(OH)2(cis-1,4-DACH)] (7), and cis,trans,cis-[Pt^IV(OXA)(DCA)2(cis-1,4-DACH)] (8) were evaluated for their cytotoxic activity towards a panel of human tumor cell lines including cervical (A431), breast (MCF-7), cancers along with a melanoma (A375) and 4 different colon cancer cell lines corresponding to different stages of the disease progression (HCT-15, SW480, CaCo-2, DLD-1). The cytotoxicity was evaluated by means of the MTT test for 72 h treatment with increasing concentrations of the tested compounds.

Data set [10] deals with A431. As to the kind of experiment: MTT cytotoxicity assay, 72 h. In kind it is cell-based, human. Conditions: A431, cervix.
Excerpt: as §4, §1, §2, §5

Data set [11] has as its system DLD-1. The experiment in a line: MTT cytotoxicity assay, 72 h. In kind it is cell-based, human. Conditions: DLD-1, colon.
Excerpt: as §4, §1, §2, §5

Data set [12] deals with MCF-7. The experiment in a line: MTT cytotoxicity assay, 72 h. In kind it is cell-based, human. To be noted: MCF-7, breast.
Excerpt: as §4, §1, §2, §5

Data set [13] deals with SW480. As to the kind of experiment: MTT cytotoxicity assay, 72 h. It is filed as cell-based, human. Conditions: SW480, colon.
Excerpt: as §4, §1, §2, §5

For data set [14], the system named is A375. The experiment in a line: MTT cytotoxicity assay, 72 h. In kind it is cell-based, human. To be noted: A375, skin.
Excerpt: as §4, §1, §2, §5

As for `[Cl][Pt]1([Cl])[NH][C@@H]2CCCC[C@H]2[NH]1` [Compound 2, [SP-4-2]-dichloro[(1R,2R)-1,2-cyclohexanediamine-N^1,N^2]platinum], the “log Po/w” value in data set [1] is reported as −1.40. The intracellular platinum accumulation result in [2] is “remarkably decreased; also recorded: decreases remarkably”.

In general, IC50 refers to the concentration that inhibits the measured activity by half. For `N.N.[Cl][Pt][Cl]` [cisplatin, cis-diamminedichloroplatinum(II), reference compound], the IC50 was 7.63 ± 1.53 µM in [3]; 7.53 ± 0.98 µM in data set [5] (LoVo-MDR, 72 h, MTT); 23.7 ± 2.42 µM in data set [6] (C13*, 72 h, MTT); 2.26 ± 1.06 µM in data set [7]; 13.1 ± 2.47 µM in data set [8] (LoVo-OXP, 72 h, MTT); 15.5 ± 2.48 µM in data set [9]. Further, the half-maximal inhibitory concentration (IC50) was 1.96 ± 0.84 µM in data set [10]; 8.01 ± 2.22 µM in [11]; 8.37 ± 2.96 µM in data set [12]; 7.67 ± 1.34 µM in data set [13]; 2.06 ± 1.01 µM in data set [14]. Moreover, the “Average tumor weight (mean ± SD, g)” value in data set [4] was 0.199 ± 0.10** g. In addition, in [4], the “Inhibition of tumor growth (%)” value is 75% and 74.66%. Also, the “R.F. (resistance factor)” value in data set [5] (IC50 LoVo-MDR / IC50 LoVo) was determined as 1.1; in data set [6] (IC50 C13* / IC50 2008, cross-resistance with cisplatin), 10.5; in [8] (IC50 LoVo-OXP / IC50 LoVo, cross-resistance with oxaliplatin), 1.7.
